Data taken from patent US10562912B2 (C&C Research Laboratories, priority 2013, dated 2020).

Assays:
Type in all cases: cell-based
[1] = biological target: T1, STAT3 (Homo sapiens, UniProt P40763); assay: STAT3 reporter gene assay (luciferase), LNCaP stable cell line (pSTAT3-TA-luc), IL-6 stimulation
T1 construct: plasmid pSTAT3-TA-luc), which contains a stably operating STAT3 promoter; endogenous in cells
How it was run: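 LNCaP cells stably carrying pSTAT3-TA-luc, in RPMI1640 with 3% DCC-FBS, were treated with compound and then stimulated with 10 ng/mL IL-6 for 24–48 h at 37 °C. Luciferase activity was measured in lysates. A parallel plate measured viability by CellTiter-Glo, with stimulated 0.1% DMSO wells as the positive control.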

[2] = tested on: LNCaP; assay: Cell growth inhibition assay, prostate cancer cell line LNCaP (medium with 10 ng/mL IL-6); conditions: Homo sapiens, medium supplemented with 10 ng/mL of IL-6, 10,000 cells/well
[3] = tested on: DU-145; assay: Cell growth inhibition assay, prostate cancer cell line DU-145; conditions: Homo sapiens, DU-145 prostate cancer cell line
How it was run: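 Seed DU-145/HCT116 3,000 cells/well, SW626 5,000 cells/well; add compound dilution series; incubate 72–96 h, 37° C., 5% CO2; microscope check for precipitate; CellTiter-Glo, luminescence. Blank = no cells; vehicle = 0.1% DMSO.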

T1 sequence (P40763 whole entry): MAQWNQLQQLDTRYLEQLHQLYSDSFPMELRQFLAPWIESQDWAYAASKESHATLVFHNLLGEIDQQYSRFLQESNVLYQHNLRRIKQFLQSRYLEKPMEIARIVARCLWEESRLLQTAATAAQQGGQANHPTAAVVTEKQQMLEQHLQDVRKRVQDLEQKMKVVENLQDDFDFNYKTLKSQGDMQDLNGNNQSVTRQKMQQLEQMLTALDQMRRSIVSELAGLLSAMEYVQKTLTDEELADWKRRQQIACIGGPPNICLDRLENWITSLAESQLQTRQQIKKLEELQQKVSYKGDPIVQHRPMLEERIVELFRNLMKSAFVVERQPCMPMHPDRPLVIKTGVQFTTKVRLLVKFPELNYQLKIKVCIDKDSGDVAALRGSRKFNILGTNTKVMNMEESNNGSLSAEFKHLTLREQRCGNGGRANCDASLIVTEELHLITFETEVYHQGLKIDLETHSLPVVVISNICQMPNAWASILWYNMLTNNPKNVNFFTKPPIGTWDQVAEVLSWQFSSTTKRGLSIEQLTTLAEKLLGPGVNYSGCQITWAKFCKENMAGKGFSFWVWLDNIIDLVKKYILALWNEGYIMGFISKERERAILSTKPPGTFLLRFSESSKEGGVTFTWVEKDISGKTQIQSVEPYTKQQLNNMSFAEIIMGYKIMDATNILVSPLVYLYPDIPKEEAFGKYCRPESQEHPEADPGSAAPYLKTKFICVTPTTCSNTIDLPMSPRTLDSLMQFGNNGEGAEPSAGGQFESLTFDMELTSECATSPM

| Structure (SMILES) | IC50 [1] [µM] | IC50 [2] [µM] | IC50 [3] [µM] |
| --- | --- | --- | --- |
| CS(=O)(=O)Nc1ccc2sc(C(=O)Nc3cc(Cl)cc(Oc4ccc(C(F)(F)F)cc4)c3)cc2c1 [Example 465, N-(3-chloro-5-(4-(trifluoromethyl)phenoxy)phenyl)-5-(methylsulfonamido)benzo[b]thiophene-2-carboxamide] | 0.12 | 0.063 | 0.048 |
| CS(=O)(=O)Nc1ccc2sc(C(=O)Nc3cc(Cl)cc(Oc4ccc(Cl)c(F)c4)c3)cc2c1 [Example 466, N-(3-chloro-5-(4-chloro-3-fluorophenoxy)phenyl)-5-(methylsulfonamido)benzo[b]thiophene-2-carboxamide] | 0.12 | 0.079 | 0.063 |
| CS(=O)(=O)Nc1ccc2sc(C(=O)Nc3cc(Cl)cc(Oc4cc(Cl)cc(OC(F)(F)F)c4)c3)cc2c1 [Example 467, N-(3-chloro-5-(3-chloro-5-(trifluoromethoxy)phenoxy)phenyl)-5-(methylsulfonamido)benzo[b]thiophene-2-carboxamide] | 0.22 | 0.039 | 0.048 |
| CS(=O)(=O)Nc1ccc2sc(C(=O)Nc3cc(Cl)cc(Oc4ccc(Cl)c(OC(F)(F)F)c4)c3)cc2c1 [Example 468, N-(3-chloro-5-(4-chloro-3-(trifluoromethoxy)phenoxy)phenyl)-5-(methylsulfonamido)benzo[b]thiophene-2-carboxamide] | 0.17 | 0.04 | 0.028 |
| CS(=O)(=O)Nc1cc2cc(C(=O)Nc3cc(Cl)cc(Oc4ccc(Cl)s4)c3)sc2cc1Cl [Example 473, 6-chloro-N-(3-chloro-5-((5-chlorothiophen-2-yl)oxy)phenyl)-5-(methylsulfonamido)benzo[b]thiophene-2-carboxamide] | 0.1 | 0.015 | 0.015 |
| COc1cc(Cl)cc(Oc2cc(Cl)cc(NC(=O)c3cc4cc(NS(C)(=O)=O)c(Cl)cc4s3)c2)c1 [Example 474, 6-chloro-N-(3-chloro-5-(3-chloro-5-methoxyphenoxy)phenyl)-5-(methylsulfonamido)benzo[b]thiophene-2-carboxamide] | 0.048 | 0.059 | 0.022 |
| CS(=O)(=O)Nc1cc2cc(C(=O)Nc3cc(Cl)cc(Oc4cc(O)cc(Cl)c4)c3)sc2cc1Cl [Example 475, 6-chloro-N-(3-chloro-5-(3-chloro-5-hydroxyphenoxy)phenyl)-5-(methylsulfonamido)benzo[b]thiophene-2-carboxamide] | > 10 | > 1.1 | > 1.1 |

Further compounds by falling IC50 [1], results first:

| IC50 [1] [µM] | IC50 [2] [µM] | IC50 [3] [µM] | Structure (SMILES) |
| --- | --- | --- | --- |
| 0.36 | 0.12 | 0.086 | CS(=O)(=O)Nc1ccc2sc(C(=O)Nc3cc(Cl)cc(Oc4cc(F)cc(Cl)c4)c3)cc2c1 [Example 469, N-(3-chloro-5-(3-chloro-5-fluorophenoxy)phenyl)-5-(methylsulfonamido)benzo[b]thiophene-2-carboxamide] |
| 0.32 | 0.067 | 0.043 | CS(=O)(=O)Nc1ccc2sc(C(=O)Nc3cc(Cl)cc(Oc4ccc(F)c(OC(F)(F)F)c4)c3)cc2c1 [Example 470, N-(3-chloro-5-(4-fluoro-3-(trifluoromethoxy)phenoxy)phenyl)-5-(methylsulfonamido)benzo[b]thiophene-2-carboxamide] |
| 0.1 | 0.37 | 0.13 | CS(=O)(=O)Nc1cc2cc(C(=O)Nc3cc(Cl)cc(Oc4cncs4)c3)sc2cc1Cl [Example 472, 6-chloro-N-(3-chloro-5-(thiazol-5-yloxy)phenyl)-5-(methylsulfonamido)benzo[b]thiophene-2-carboxamide] |
| 0.075 | 0.11 | 0.049 | CS(=O)(=O)Nc1cc2cc(C(=O)Nc3cc(Cl)cc(Oc4nccs4)c3)sc2cc1Cl [Example 471, 6-chloro-N-(3-chloro-5-(thiazol-2-yloxy)phenyl)-5-(methylsulfonamido)benzo[b]thiophene-2-carboxamide] |
